Reference: PubChem BioAssay (NCI)
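48-hour exposure; five concentrations; linearly interpolated endpoints. GI50 is the concentration that inhibits growth by half. TGI denotes the concentration required for complete inhibition of growth.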

Key:
Test in all cases: DTP human tumour cell line panel, 48 h
[1] = tested on: CCRF-CEM leukemia
[2] = tested on: BT-549 breast
[3] = tested on: DU-145 prostate
[4] = tested on: TK-10 renal
[5] = tested on: HCT-116 colon
[6] = tested on: NCI-H460 lung
[7] = tested on: RPMI-8226 leukemia
[8] = tested on: T-47D breast
[9] = tested on: MDA-MB-231 breast
[10] = tested on: EKVX NSCLC
[11] = tested on: SF-295 CNS
[12] = tested on: U251 CNS
[13] = tested on: MCF7 breast
[14] = tested on: OVCAR-8 ovarian
[15] = tested on: OVCAR-4 ovarian
[16] = tested on: HT29 colon
[17] = tested on: PC-3 prostate
[18] = tested on: CAKI-1 renal
[19] = tested on: A549 NSCLC
[20] = tested on: HOP-62 NSCLC
[21] = tested on: OVCAR-3 ovarian
[22] = tested on: UACC-62 melanoma
[23] = tested on: NCI/ADR-RES ovarian
[24] = tested on: M14 melanoma
[25] = tested on: MALME-3M melanoma
[26] = tested on: K-562 leukemia
[27] = tested on: RXF 393 renal
[28] = tested on: HL-60(TB) leukemia
[29] = tested on: UO-31 renal
[30] = tested on: SF-268 CNS
[31] = tested on: UACC-257 melanoma
[32] = tested on: NCI-H226 lung
[33] = tested on: NCI-H23 lung
[34] = tested on: KM12 colon
[35] = tested on: SNB-75 CNS
[36] = tested on: SK-OV-3 ovarian
[37] = tested on: A498 renal
[38] = tested on: LOX IMVI melanoma
[39] = tested on: COLO 205 colon
[40] = tested on: SW-620 colon
[41] = tested on: HCC-2998 colon
[42] = tested on: MDA-MB-435
[43] = tested on: ACHN renal
[44] = tested on: SNB-19 CNS
[45] = tested on: SN12C renal
[46] = tested on: SK-MEL-2 melanoma
[47] = tested on: IGROV1 ovarian
[48] = tested on: OVCAR-5 ovarian
[49] = tested on: SK-MEL-28 melanoma
[50] = tested on: SR leukemia
[51] = tested on: SK-MEL-5 melanoma
[52] = tested on: HS 578T breast
[53] = tested on: 786-0 renal
[54] = tested on: SF-539 CNS
[55] = tested on: HCT-15 colon
[56] = tested on: HOP-92 NSCLC
[57] = tested on: MOLT-4 leukemia
[58] = tested on: NCI-H522 lung

`Cc1nc2cnc3cc(F)c(-c4ccc(Oc5ncccn5)cc4Cl)cc3c2n1[C@H]1CCN(C(=O)CO)C[C@@H]1F` gave a GI50 [1] of 1.69 µM, a TGI [1] greater than 76.8 µM and a GI50 [2] of 7.51 µM. For the same molecule, the TGI [2] was 23.1 µM, the GI50 [3] was 4.36 µM and the TGI [3] was greater than 100 µM. The GI50 [4] was 1.76 µM, the TGI [4] was 36 µM and the GI50 [5] was 0.255 µM. For the same molecule, the TGI [5] was 15.4 µM, the GI50 [6] was 2.54 µM and the TGI [6] was greater than 100 µM. It also gave a GI50 [7] of 1.35 µM, a TGI [7] of 13.9 µM and a GI50 [8] of 36 µM. For the same molecule, the TGI [8] was greater than 100 µM, the GI50 [9] was 0.101 µM and the TGI [9] was 5.83 µM. The GI50 [10] was 3.23 µM, the TGI [10] was greater than 95.5 µM and the GI50 [11] was 8.41 µM. It also gave a TGI [11] greater than 57.1 µM, a GI50 [12] of 5.91 µM and a TGI [12] greater than 100 µM. The GI50 [13] was 6.51 µM, the TGI [13] was greater than 58.2 µM and the GI50 [14] was 7.35 µM. For the same molecule, the TGI [14] was greater than 100 µM, the GI50 [15] was 20.8 µM and the TGI [15] was greater than 83.9 µM. For the same molecule, the GI50 [16] was 0.0513 µM, the TGI [16] was 16.9 µM and the GI50 [17] was 28.9 µM. It also gave a TGI [17] greater than 100 µM, a GI50 [18] of 0.558 µM and a TGI [18] of 16.4 µM. For the same molecule, the GI50 [19] was 1.97 µM, the TGI [19] was greater than 100 µM and the GI50 [20] was 0.642 µM. The TGI [20] was 49.3 µM, the GI50 [21] was 20 µM and the TGI [21] was greater than 76.3 µM. For the same molecule, the GI50 [22] was 0.0134 µM, the TGI [22] was 0.0875 µM and the GI50 [23] was 8.38 µM. The TGI [23] was 49 µM, the GI50 [24] was 0.0155 µM and the TGI [24] was 0.882 µM. For the same molecule, the TGI [25] was 0.0316 µM, the GI50 [26] was 4.6 µM and the TGI [26] was greater than 100 µM. It also gave a GI50 [27] of 2.02 µM, a TGI [27] of 10.9 µM and a GI50 [28] of 0.106 µM. The TGI [28] was 1.69 µM, the GI50 [29] was 1.78 µM and the TGI [29] was 24.4 µM. The GI50 [30] was 6.12 µM, the TGI [30] was greater than 100 µM and the GI50 [31] was 0.0269 µM. For the same molecule, the TGI [31] was 0.411 µM, the GI50 [32] was 5.18 µM and the TGI [32] was 29.8 µM. It also gave a GI50 [33] of 0.32 µM, a TGI [33] of 13.7 µM and a GI50 [34] of 0.0405 µM. It also gave a TGI [34] greater than 100 µM, a GI50 [35] of 12 µM and a TGI [35] of 36.2 µM. For the same molecule, the GI50 [36] was 3.93 µM, the TGI [36] was greater than 100 µM and the GI50 [37] was 4.58 µM. For the same molecule, the TGI [37] was greater than 84.9 µM, the GI50 [38] was 0.417 µM and the TGI [38] was 11.5 µM. It also gave a GI50 [39] of 0.0229 µM, a TGI [39] of 1.68 µM and a GI50 [40] of 0.422 µM. It also gave a TGI [40] of 54.6 µM, a GI50 [41] of 0.261 µM and a TGI [41] of 15.3 µM. For the same molecule, the GI50 [42] was 0.0692 µM, the TGI [42] was greater than 60.7 µM and the GI50 [43] was 8.19 µM. The TGI [43] was greater than 100 µM, the GI50 [44] was 4.89 µM and the TGI [44] was greater than 100 µM. The GI50 [45] was 1.2 µM, the TGI [45] was 36.8 µM and the GI50 [46] was 0.059 µM. It also gave a TGI [46] of 0.536 µM, a GI50 [47] of 0.936 µM and a TGI [47] greater than 100 µM. The GI50 [48] was 0.279 µM, the TGI [48] was greater than 40.1 µM and the GI50 [49] was 0.023 µM. It also gave a TGI [49] of 12.1 µM, a GI50 [50] of 13.3 µM and a TGI [50] of 54.4 µM. The GI50 [51] was 0.49 µM, the TGI [51] was 14.7 µM and the GI50 [52] was 13.4 µM. The TGI [52] was 77.3 µM, the GI50 [53] was 8.47 µM and the TGI [53] was greater than 100 µM. For the same molecule, the GI50 [54] was 3.03 µM, the TGI [54] was 16.9 µM and the GI50 [55] was 3.6 µM. It also gave a TGI [55] greater than 100 µM, a GI50 [56] of 0.403 µM and a TGI [56] of 3.5 µM. It also gave a GI50 [57] of 0.792 µM, a TGI [57] of 30 µM and a GI50 [58] of 7.17 µM. The TGI [58] was 32.7 µM.
`NC(=O)c1oc([N+](=O)[O-])c(-c2ccccc2)c1-c1ccccc1` gave a TGI [1] of 38.9 µM, a TGI [2] of 40.6 µM and a TGI [3] of 93.4 µM. It also gave a TGI [4] of 72.8 µM, a TGI [5] of 36 µM and a TGI [6] greater than 100 µM. The TGI [8] was 50.3 µM, the TGI [9] was 38.6 µM and the TGI [10] was 48.4 µM. For the same molecule, the TGI [11] was 35.3 µM, the TGI [12] was 71.1 µM and the TGI [13] was greater than 100 µM. For the same molecule, the TGI [14] was 68.2 µM, the TGI [15] was 28.5 µM and the TGI [16] was greater than 100 µM. It also gave a TGI [17] of 47.9 µM, a TGI [18] of 48.1 µM and a TGI [19] of 44.5 µM. The TGI [20] was greater than 100 µM, the TGI [21] was 22.7 µM and the TGI [22] was 21.3 µM. The TGI [23] was 57.2 µM, the TGI [24] was 32.5 µM and the TGI [25] was 16 µM. The TGI [26] was 59.6 µM, the TGI [27] was greater than 100 µM and the TGI [28] was 70 µM. It also gave a TGI [29] of 52.2 µM, a TGI [30] greater than 100 µM and a TGI [31] of 34.7 µM. It also gave a TGI [32] of 28.1 µM, a TGI [33] of 35 µM and a TGI [34] of 40.9 µM. It also gave a TGI [35] greater than 100 µM, a TGI [36] greater than 100 µM and a TGI [38] of 29.1 µM. The TGI [39] was 42.1 µM, the TGI [40] was greater than 100 µM and the TGI [42] was 28.7 µM. It also gave a TGI [43] of 82 µM, a TGI [44] greater than 100 µM and a TGI [45] of 5.09 µM. The TGI [46] was 36.3 µM, the TGI [47] was 31.5 µM and the TGI [48] was 63.2 µM. It also gave a TGI [49] greater than 100 µM, a TGI [50] of 34.2 µM and a TGI [51] of 14.2 µM. The TGI [52] was 28.2 µM, the TGI [53] was 89.7 µM and the TGI [54] was 38.1 µM. For the same molecule, the TGI [55] was 35.4 µM, the TGI [56] was 42 µM and the TGI [57] was 96.6 µM. It also gave a TGI [58] of 31.5 µM.
